ChEMBL document CHEMBL4725249, “Quinazoline Based HSP90 Inhibitors: Synthesis, Modeling Study and ADME Calculations Towards Breast Cancer Targeting” (Bioorg Med Chem Lett, 2020)

Columns and labels:
[1] = test system: MCF7; test: Antiproliferative activity against human MCF7 cells assessed as reduction in cell viability after 48 hrs by MTT assay; type: functional, cell-based; conditions: MCF7, 48 h
[2] = test system: WI-38; test: cells; conditions: Homo sapiens, WI-38, 48 h
Description: Cytotoxicity against human WI-38 cells assessed as reduction in cell viability after 48 hrs by MTT assay

[3] = test system: HeLa; test: Antiproliferative activity against human HeLa cells assessed as reduction in cell viability after 48 hrs by MTT assay; type: functional, cell-based
[4] = test system: HCT-116; test: cells; conditions: Homo sapiens, HCT-116, 48 h
Description: Antiproliferative activity against human HCT116 cells assessed as reduction in cell viability after 48 hrs by MTT assay

[5] = biological target: Heat shock protein HSP90 (Homo sapiens, UniProt P07900+P08238); test: Inhibition of HSP90 ATPase activity (unknown origin); type: protein assay
[6] = test system: MCF7; test: Induction of cell cycle arrest in human MCF7 cells assessed as cell accumulation at G0/G1 phase at 2 uM after 24 hrs by PI-staining based flow cytometry (reference value: 53.72%); type: functional
[7] = test system: MCF7; test: Induction of apoptosis in human MCF7 cells assessed as early apoptotic cells at 2 uM after 24 hrs by Annexin V-FITC/propidium iodide staining based flow cytometric analysis (reference value: 0.82%); type: functional
[8] = test system: MCF7; test: Induction of cell cycle arrest in human MCF7 cells assessed as cell accumulation at Pre-G1 phase at 2 uM after 24 hrs by PI-staining based flow cytometry (reference value: 1.64%); type: functional
[9] = test system: MCF7; test: Induction of apoptosis in human MCF7 cells assessed as late apoptotic cells at 2 uM after 24 hrs by Annexin V-FITC/propidium iodide staining based flow cytometric analysis (reference value: 0.39%); type: functional
[10] = test system: MCF7; test: Induction of cell cycle arrest in human MCF7 cells assessed as cell aggregates at 2 uM after 24 hrs by PI-staining based flow cytometry (reference value: 2.28%); type: functional
[11] = test system: MCF7; test: Induction of cell cycle arrest in human MCF7 cells assessed as debris content at 2 uM after 24 hrs by PI-staining based flow cytometry (reference value: 2.09%); type: functional
[12] = test system: MCF7; test: Induction of apoptosis in human MCF7 cells assessed as necrotic cells at 2 uM after 24 hrs by Annexin V-FITC/propidium iodide staining based flow cytometric analysis (reference value: 0.43%); type: functional
[13] = test system: MCF7; test: Induction of cell cycle arrest in human MCF7 cells assessed as cell accumulation at G2/M phase at 2 uM after 24 hrs by PI-staining based flow cytometry (reference value: 10.84%); type: functional
[14] = test system: MCF7; test: Induction of cell cycle arrest in human MCF7 cells assessed as cell accumulation at S phase at 2 uM after 24 hrs by PI-staining based flow cytometry (reference value: 35.44%); type: functional

SMILES: O=c1c2ccccc2nc(SCCCCl)n1-c1ccccc1
- IC50 [1]: 12.6 µM
- IC50 [2]: 36.7 µM
- IC50 [3]: 16.7 µM
- IC50 [4]: 23.2 µM

SMILES: CCOc1ccccc1N1CCN(C(=S)SCCCSc2nc3ccccc3c(=O)n2-c2ccccc2)CC1
- IC50 [1]: 9.48 µM
- IC50 [2]: 33.3 µM
- IC50 [3]: 20.6 µM
- IC50 [4]: 18.1 µM
- IC50 [5]: 3.41 µM

SMILES: O=c1c2ccccc2nc(SCCCSC(=S)N2CCN(C3CCCCC3)CC2)n1-c1ccccc1
- IC50 [1]: 45.9 µM
- IC50 [2]: > 100 µM
- IC50 [3]: 64.5 µM
- IC50 [4]: 73.8 µM

SMILES: O=c1c2ccccc2nc(SCCCSC(=S)N2CCCCC2)n1-c1ccccc1
- IC50 [1]: 38.5 µM
- IC50 [2]: > 100 µM
- IC50 [3]: 50.3 µM
- IC50 [4]: 63.4 µM

SMILES: CC(C)(C)OC(=O)N1CCN(C(=O)CSc2nc3ccccc3c(=O)n2-c2ccccc2)CC1
- IC50 [1]: 25.9 µM
- IC50 [2]: 62.6 µM
- IC50 [3]: 34.5 µM
- IC50 [4]: 48.3 µM

SMILES: O=C(CSc1nc2ccccc2c(=O)n1-c1ccccc1)N1CCN(C2CCCCC2)CC1
- IC50 [1]: 35.9 µM
- IC50 [2]: 78.4 µM
- IC50 [3]: 53.6 µM
- IC50 [4]: 60.9 µM

SMILES: O=C(CSc1nc2ccccc2c(=O)n1-c1ccccc1)N1CCOCC1
- IC50 [1]: 11.7 µM
- IC50 [2]: 16 µM
- IC50 [3]: 18.2 µM
- IC50 [4]: 19.8 µM
- IC50 [5]: 3.21 µM

SMILES: O=C(CSc1nc2ccccc2c(=O)n1-c1ccccc1)N1CCN(c2ncccn2)CC1
- IC50 [1]: 47.5 µM
- IC50 [2]: 94.5 µM
- IC50 [3]: 76.9 µM
- IC50 [4]: 78.7 µM

SMILES: O=C(CSc1nc2ccccc2c(=O)n1-c1ccccc1)N1CCCCC1
- IC50 [1]: 13.8 µM
- IC50 [2]: 65 µM
- IC50 [3]: 22.5 µM
- IC50 [4]: 25.3 µM

SMILES: CC(=O)N1CCN(C(=S)SCCCSc2nc3ccccc3c(=O)n2-c2ccccc2)CC1
- IC50 [1]: 22.4 µM
- IC50 [2]: > 100 µM
- IC50 [3]: 54.9 µM
- IC50 [4]: 37 µM

SMILES: C=CCN1CCN(C(=O)CSc2nc3ccccc3c(=O)n2-c2ccccc2)CC1
- IC50 [1]: 8.56 µM
- IC50 [2]: 12.2 µM
- Activity [6]: 31.59%
- Activity [7]: 4.94%
- Activity [8]: 22.42%
- Activity [9]: 15.17%
- Activity [10]: 2.21%
- Activity [11]: 2.63%
- Activity [12]: 2.31%
- Activity [13]: 38.89%
- IC50 [3]: 13.4 µM
- IC50 [4]: 15.7 µM
- IC50 [5]: 1.58 µM
- Activity [14]: 29.52%

SMILES: CC(=O)N1CCN(C(=O)CSc2nc3ccccc3c(=O)n2-c2ccccc2)CC1
- IC50 [1]: 7.35 µM
- IC50 [2]: 16 µM
- IC50 [3]: 12 µM
- IC50 [4]: 10.3 µM
- IC50 [5]: 14.36 µM

SMILES: C=CCN1CCN(C(=S)SCCCSc2nc3ccccc3c(=O)n2-c2ccccc2)CC1
- IC50 [1]: 17.8 µM
- IC50 [2]: 82.5 µM
- IC50 [3]: 28.7 µM
- IC50 [4]: 32.1 µM

SMILES: O=c1c2ccccc2nc(SCCCSC(=S)N2CCN(c3ncccn3)CC2)n1-c1ccccc1
- IC50 [1]: 49.3 µM
- IC50 [2]: > 100 µM
- IC50 [3]: 74.4 µM
- IC50 [4]: 79.6 µM

SMILES: CCN1CCN(C(=S)SCCCSc2nc3ccccc3c(=O)n2-c2ccccc2)CC1
- IC50 [1]: 64.3 µM
- IC50 [2]: > 100 µM
- IC50 [3]: 79.6 µM
- IC50 [4]: 88 µM

SMILES: CN1CCN(C(=S)SCCCSc2nc3ccccc3c(=O)n2-c2ccccc2)CC1
- IC50 [1]: 19.3 µM
- IC50 [2]: 70.5 µM
- IC50 [3]: 33.3 µM
- IC50 [4]: 32.8 µM

SMILES: O=c1c2ccccc2nc(SCCCSC(=S)N2CCN(c3ccccc3)CC2)n1-c1ccccc1
- IC50 [1]: 15.5 µM
- IC50 [2]: 29.8 µM
- IC50 [3]: 26.1 µM
- IC50 [4]: 27.6 µM

SMILES: CCN1CCN(C(=O)CSc2nc3ccccc3c(=O)n2-c2ccccc2)CC1
- IC50 [1]: 23.9 µM
- IC50 [2]: 82 µM
- IC50 [3]: 37.5 µM
- IC50 [4]: 44.3 µM
